According to patent US11311015B2, “Herbicidal combination” (UPL LIMITED, priority 2018, dated 2022):

Tested on: yellow nutsedge
Assay: Field trial, post-emergence control of yellow nutsedge (Blacksburg, Va.)
Format: in vivo, Cyperus esculentus
Conditions: for Yellow nut sedge (Percentage weed cover), 05/07 / Yellow nut sedge (Percentage weed cover), 13/06 / Yellow nut sedge (Percentage weed cover), 20/6 / Yellow nut sedge (Percentage Control), 05/07 / Yellow nut sedge (Percentage Control), 13/06 / Yellow nut sedge (Percentage Control), 20/6: post-emergence field plots, dosage 1X single, 0.5X two-way; for Yellow nut sedge (Percentage weed cover), 05/07: rating date 05/07 (29 DAT), untreated 59; for Yellow nut sedge (Percentage weed cover), 05/07 / Yellow nut sedge (Percentage weed cover), 13/06 / Yellow nut sedge (Percentage weed cover), 20/6 / Yellow nut sedge (Percentage Control), 05/07 / Yellow nut sedge (Percentage Control), 20/6: 0.33X three-way; for Yellow nut sedge (Percentage weed cover), 13/06: rating date 13/06, untreated 50; for Yellow nut sedge (Percentage weed cover), 20/6: rating date 20/6, untreated 49; for Yellow nut sedge (Percentage Control), 05/07: trial initiated June 6, rating date 05/07 (29 DAT); for Yellow nut sedge (Percentage Control), 13/06: trial initiated June 6, rating date 13/06, 0.33X three-way (rates Table 2); for Yellow nut sedge (Percentage Control), 20/6: trial initiated June 6, rating date 20/6; for Burn down / residual control of sedges, result in words: speed of burn down, onset of plant necrosis
Procedure: An exemplary combination according to the invention was used for sedge and broadleaf weed control for agricultural crops, turf, ornamentals, and landscape. The exemplary combination was used for the post-emergence control of sedges, as well as the control/suppression of various broadleaf and grassy weeds.
A field trial was conducted to evaluate the effectiveness of the combinations of three active ingredients according to the invention when used post emergence, at different rates, compared to industry standards—stand alone and 2 way mixture of compounds for efficacy of yellow nutsedge. The active ingredient combination used in the trial was bentazon+halosulfuron+sulfentrazone. The trial was conducted in Blacksburg, Va. and was initiated on June 6 under Protocol #BRLM-62-US-VA-18-10-BTC. The plots were in fallow area primarily covered with yellow nutsedge and tall fescue, and were sprayed at 4 week intervals. (2 applications total). The application dosages of the herbicides, when used in isolation and when used in the combinations were as follows: […]

| Compound | Yellow nut sedge (Percentage weed cover), 05/07 [%] | Yellow nut sedge (Percentage weed cover), 13/06 [%] | Yellow nut sedge (Percentage weed cover), 20/6 [%] | Yellow nut sedge (Percentage Control), 05/07 [%] | Yellow nut sedge (Percentage Control), 13/06 [%] | Yellow nut sedge (Percentage Control), 20/6 [%] | Weed control of yellow nutsedge, result in words (post-emergence field trial, compared to individual products and 2 way mixes) | Burn down / residual control of sedges, result in words |
| --- | --- | --- | --- | --- | --- | --- | --- | --- |
| CC(C)N1C(=O)c2ccccc2NS1(=O)=O [Bentazone] | 10 | 40 | 8 | 76 | 65 | 75 | did not provide sufficient weed control | fairly rapid burn down of some of the sedges |
| COC(=O)c1c(Cl)nn(C)c1S(=O)(=O)NC(=O)Nc1nc(OC)cc(OC)n1 [Halosulfuron, Halosulfuron-methyl] | 8 | 50 | 16 | 81 | 36 | 60 | – | delayed response of up to four weeks before plant necrosis began |
| Cc1nn(-c2cc(NS(C)(=O)=O)c(Cl)cc2Cl)c(=O)n1C(F)F [Sulfentrazone] | 9 | 44 | 11 | 75 | 58 | 73 | – | fairly rapid burn down of some of the sedges |
